Literature values in patent US7958848B2, “Method for artificial breeding of farmed sturgeon” (priority 2009, dated 2011).

Test system: goldfish
Conditions: 1-5 mg/kg body weight in combination with pituitary gland

O=c1[nH]c2ccccc2n1CCCN1CCC(n2c(=O)[nH]c3cc(Cl)ccc32)CC1 [Domperidone]
Induction of spawning and gonadal development: induced spawning and gonadal development
